Assay results published in US10597388B2, “Pyridazinone herbicides” (FMC CORPORATION, priority 2014, dated 2020).

Key:
Assay type in all cases: in vivo
[1] = test system: barnyardgrass (Echinochloa crus-galli); assay: Test A greenhouse herbicide test, pre- and postemergence
Summary of the method: (§1)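 Seeds in loam–sand blend received a preemergence directed soil spray; plants at 2–10 cm, one- to two-leaf stage, received postemergence sprays. Compounds in a non-phytotoxic solvent with surfactant. After about 10 d in a greenhouse, injury rated visually versus untreated controls on a 0–100 scale (100 = complete control).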

[2] = test system: kochia (Kochia scoparia); assay: as above
Summary of the method: as §1

[3] = test system: corn (Zea mays); assay: Test C greenhouse herbicide test, pre- and postemergence
Summary of the method: (§2)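 Visual ratings on a 0 to 100 scale (0 = no effect, 100 = complete control) versus untreated controls, scored 13–15 d after treatment. Soil-applied preemergence to seeded loam/sand; foliar postemergence to 1- to 4-leaf plants (2–18 cm) in peat-vermiculite mix; compounds formulated in solvent plus surfactant.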

[4] = test system: crabgrass, large (large crabgrass, Digitaria sanguinalis); assay: as above
Summary of the method: as §2

[5] = test system: foxtail, giant (giant foxtail, Setaria faberii); assay: as above
Summary of the method: as §2

[6] = test system: johnsongrass (Sorghum halepense); assay: as above
Summary of the method: as §2

[7] = test system: lambsquarters (Chenopodium album); assay: as above
Summary of the method: as §2

[8] = test system: morningglory (Ipomoea coccinea); assay: as above
Summary of the method: as §2

[9] = test system: oilseed rape (Brassica napus); assay: as above
Summary of the method: as §2

[10] = test system: waterhemp (common waterhemp, Amaranthus rudis); assay: as above
Summary of the method: as §2

[11] = test system: wheat (winter wheat, Triticum aestivum); assay: as above
Summary of the method: as §2

[12] = Postemergence, 125 g ai/ha, 0 to 100 scale where 0 is no effect and 100 is complete control
[13] = Postemergence, 500 g ai/ha, visual rating after approx. 10 d, 0 to 100 scale (0 no effect, 100 complete control)
[14] = Preemergence, 125 g ai/ha, 0 to 100 scale where 0 is no effect and 100 is complete control
[15] = Preemergence, 500 g ai/ha, 0 to 100 scale where 0 is no effect and 100 is complete control
[16] = Postemergence, 31 g ai/ha, scale 0 to 100 (0 no effect, 100 complete control)
[17] = Postemergence, 62 g ai/ha, 0 to 100 scale (0 no effect, 100 complete control)
[18] = Postemergence, 250 g ai/ha, scale 0 to 100, 0 no effect, 100 complete control, 13 to 15 d
[19] = Preemergence, 31 g ai/ha, scale 0 to 100, 0 is no effect, 100 is complete control
[20] = Preemergence, 62 g ai/ha, scale 0 to 100, 0 is no effect, 100 is complete control
[21] = Preemergence, 125 g ai/ha, scale 0 to 100, 0 is no effect, 100 is complete control
[22] = Preemergence, 250 g ai/ha, scale 0 to 100, 0 no effect, 100 complete control
[23] = postemergence, 125 g ai/ha, scale 0 to 100, 0 no effect, 100 complete control

SMILES: COC(=O)Oc1c(OC)nn(C)c(=O)c1-c1c(C)ccc2ccccc12 [Compound 136]
- Plant response rating, Barnyardgrass [1, 12]: 20
- Plant response rating, Barnyardgrass [1, 13]: 100
- Barnyardgrass plant response rating [1, 14]: 10
- Plant response rating, Barnyardgrass [1, 15]: 80
- Plant response rating, Kochia [2, 12]: 100
- Plant response rating, Kochia [2, 13]: 100
- Kochia plant response rating [2, 14]: 60
- Plant response rating, Kochia [2, 15]: 90
- Plant response rating, Corn [3, 16]: 0
- Corn plant response rating [3, 17]: 5
- Plant response rating, Corn [3, 18]: 10
- Plant response rating, Corn [3, 19]: 0
- Plant response rating, Corn [3, 20]: 5
- Plant response rating, Corn [3, 21]: 0
- Corn plant response rating [3, 22]: 5
- Corn plant response rating [3, 23]: 10
- Plant response rating, Crabgrass, Large [4, 16]: 10
- Crabgrass, Large plant response rating [4, 17]: 20
- Plant response rating, Crabgrass, Large [4, 18]: 35
- Plant response rating, Crabgrass, Large [4, 19]: 0
- Plant response rating, Crabgrass, Large [4, 20]: 5
- Plant response rating, Crabgrass, Large [4, 21]: 60
- Crabgrass, Large plant response rating [4, 22]: 95
- Crabgrass, Large plant response rating [4, 23]: 25
- Plant response rating, Foxtail, Giant [5, 16]: 35
- Foxtail, Giant plant response rating [5, 17]: 45
- Plant response rating, Foxtail, Giant [5, 18]: 90
- Plant response rating, Foxtail, Giant [5, 19]: 75
- Plant response rating, Foxtail, Giant [5, 20]: 85
- Plant response rating, Foxtail, Giant [5, 21]: 100
- Foxtail, Giant plant response rating [5, 22]: 98
- Foxtail, Giant plant response rating [5, 23]: 70
- Plant response rating, Johnsongrass [6, 16]: 5
- Johnsongrass plant response rating [6, 17]: 5
- Plant response rating, Johnsongrass [6, 18]: 5
- Plant response rating, Johnsongrass [6, 19]: 5
- Plant response rating, Johnsongrass [6, 20]: 5
- Plant response rating, Johnsongrass [6, 21]: 20
- Johnsongrass plant response rating [6, 22]: 10
- Johnsongrass plant response rating [6, 23]: 5
- Plant response rating, Lambsquarters [7, 16]: 90
- Lambsquarters plant response rating [7, 17]: 90
- Plant response rating, Lambsquarters [7, 18]: 100
- Plant response rating, Lambsquarters [7, 19]: 95
- Plant response rating, Lambsquarters [7, 20]: 90
- Plant response rating, Lambsquarters [7, 21]: 100
- Lambsquarters plant response rating [7, 22]: 100
- Lambsquarters plant response rating [7, 23]: 95
- Plant response rating, Morningglory [8, 16]: 98
- Morningglory plant response rating [8, 17]: 98
- Plant response rating, Morningglory [8, 18]: 100
- Plant response rating, Morningglory [8, 19]: 80
- Plant response rating, Morningglory [8, 20]: 95
- Plant response rating, Morningglory [8, 21]: 98
- Morningglory plant response rating [8, 22]: 98
- Morningglory plant response rating [8, 23]: 100
- Plant response rating, Oilseed Rape [9, 16]: 95
- Oilseed Rape plant response rating [9, 17]: 98
- Plant response rating, Oilseed Rape [9, 18]: 98
- Plant response rating, Oilseed Rape [9, 19]: 10
- Plant response rating, Oilseed Rape [9, 20]: 30
- Plant response rating, Oilseed Rape [9, 21]: 90
- Oilseed Rape plant response rating [9, 22]: 100
- Oilseed Rape plant response rating [9, 23]: 98
- Plant response rating, Waterhemp [10, 16]: 80
- Waterhemp plant response rating [10, 17]: 80
- Plant response rating, Waterhemp [10, 18]: 100
- Plant response rating, Waterhemp [10, 19]: 98
- Plant response rating, Waterhemp [10, 20]: 100
- Plant response rating, Waterhemp [10, 21]: 98
- Waterhemp plant response rating [10, 22]: 100
- Waterhemp plant response rating [10, 23]: 95
- Plant response rating, Wheat [11, 16]: 35
- Wheat plant response rating [11, 17]: 45
- Plant response rating, Wheat [11, 18]: 90
- Plant response rating, Wheat [11, 19]: 0
- Plant response rating, Wheat [11, 20]: 10
- Plant response rating, Wheat [11, 21]: 45
- Wheat plant response rating [11, 22]: 45
- Wheat plant response rating [11, 23]: 45
